Test results as given in patent US20140057895A1, “INDAZOLE- AND PYRROLOPYRIDINE-DERIVATIVE AND PHARMACEUTICAL USE THEREOF” (priority 2011, published 2014).
Structures can show the parent of a compound that is named as a salt.

Columns and labels:
[1] = molecular target: T1, human 5-HT4b receptor (Homo sapiens, UniProt Q13639); assay: Test Example 4: Serotonin 4 (5-HT4) receptor agonist activity assay, cAMP HTRF in CHO cells (Table 100); type: cell-based; settings: mean value; for Emax: CHO, 0.25 h, intrinsic activity, maximal activity of 5-HT defined as 100%, read-out: IA (%); for EC50: concentration showing 50% of IA
T1 construct: expressed in transfected cells; host or cells: CHO cells (G418 selection)
In short: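 CHO cells expressing human 5-HT4b receptor, serum-reduced for 1–2 h, were suspended in Hanks/HEPES pH 7.4 and exposed to compound for 15 min at 31° C. cAMP detected by HTRF (cryptate/d2, 1 h RT, 620/665 nm). EC50 and intrinsic activity relative to maximal 5-HT response (10^−11 to 10^−7 M) set at 100%.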

[2] = molecular target: T2, Human 5-HT4 receptor (5-HT4b) (Homo sapiens, UniProt Q13639); assay: Test Example 3: Human 5-HT4 receptor binding assay, membranes of CHO-K1 cells stably expressing 5-HT4b receptors (Table 99); settings: mean value of each group
T2 construct: expressed in transfected cells; membrane preparation
Procedure: To an assay tube were added 0.1 nM [^3H]-GR113808 {chemical name: [1-[2-(methylsulfonylamino) ethyl]-4-piperidinyl]methyl 1-methylindole-3-carboxylate}, receptor membrane preparations, and Hepes buffer (50 mM, pH 7.4, 4° C., 1 ml) containing test compounds or 30 μM serotonin; and the mixture was incubated at 37° C. for 30 minutes. On quenching the reaction, the mixture was rapidly filtered on whatman GF/B filter, which was presoaked in 0.1% polyethyleneimine for 1 hour, by using Brandel cell Harvester, and washed with ice-cooled 50 mM Tris-HCl (pH 7.7, 4 ml) three times. To the filter after filtration was added a liquid scintillator (Ecoscint), and then a radioactivity was determined by a liquid scintillation counter.
50% Inhibition concentrations (IC50) were determined from inhibition rates of test compounds to specific bindings which were obtained by subtracting nonspecific bindings from total binding amounts of [^3H]-GR113808.
Human 5-HT4 receptor membrane preparations were prepared from CHO-K^1 cells which stably express 5-HT4b receptors, and human 5-HT4 receptor binding assay was carried out in a similar manner as in the guinea pig 5-HT4 receptor binding assay. The following tables show results of serotonin 4 (5-HT4) receptor binding assay. In the following tables, the compounds used in the test are shown in numbers which correspond to the Example numbers above where the preparations of the compounds are described.

T1 sequence (Q13639 whole entry): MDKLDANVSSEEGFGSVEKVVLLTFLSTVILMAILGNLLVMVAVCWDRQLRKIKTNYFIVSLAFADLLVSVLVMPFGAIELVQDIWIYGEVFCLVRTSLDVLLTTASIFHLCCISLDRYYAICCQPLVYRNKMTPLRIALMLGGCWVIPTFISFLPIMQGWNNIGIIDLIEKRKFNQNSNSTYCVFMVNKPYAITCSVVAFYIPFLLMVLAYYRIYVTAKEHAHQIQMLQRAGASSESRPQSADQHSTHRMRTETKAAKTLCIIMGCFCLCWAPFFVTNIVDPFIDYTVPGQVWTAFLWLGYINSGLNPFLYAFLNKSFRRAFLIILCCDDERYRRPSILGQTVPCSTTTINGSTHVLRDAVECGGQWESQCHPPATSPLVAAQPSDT
T2 sequence (Q13639 whole entry): as above

SMILES | Emax [1] [%] | EC50 [1] [nM] | IC50 [2] [nM]
O=C(CO)N1CCC(N2CCC(c3nc(-n4nc(C5CCC5)c5cccc(F)c54)no3)CC2)CC1 [Example 527, 1-{4-[3-(3-cyclobutyl-7-fluoro-1H-indazol-1-yl)-1,2,4-oxadiazol-5-yl]-1,4′-bipiperidin-1′-yl}-2-hydroxyethanone] | 114 | 5.7 | < 20
CC(C)c1nn(-c2noc(C3CCN(C4(C)CCN(C(=O)CO)CC4)CC3)n2)c2c(F)cccc12 [Example 537, 1-(4-{3-[7-fluoro-3-(propan-2-yl)-1H-indazol-1-yl]-1,2,4-oxadiazol-5-yl}-4′-methyl-1,4′-bipiperidin-1′-yl)-2-hydroxyethanone] | 111 | 1.3 | < 20
CCc1nn(-c2noc(C3CCN(C[C@@H]4CCN(C(=O)CO)C4)CC3)n2)c2c(F)cccc12 [Example 582, 1-[(3S)-3-({4-[3-(3-ethyl-7-fluoro-1H-indazol-1-yl)-1,2,4-oxadiazol-5-yl]piperidin-1-yl}methyl)pyrrolidin-1-yl]-2-hydroxyethanone] | 91 | 3.7 | < 20
CC(C)c1nn(-c2noc([C@H]3CC[C@H](NCC4CCCO4)CC3)n2)c2c(F)cccc12 (relative stereo) [Example 620, trans-4-{3-[7-fluoro-3-(propan-2-yl)-1H-indazol-1-yl]-1,2,4-oxadiazol-5-yl}-N-(tetrahydrofuran-2-ylmethyl)cyclohexanamine] |  |  | < 20
CC(C)c1nn(-c2noc([C@H]3C[C@@H](NCCC4CCCCO4)C3)n2)c2c(F)cccc12 (relative stereo) [Example 597, cis-3-{3-[7-fluoro-3-(propan-2-yl)-1H-indazol-1-yl]-1,2,4-oxadiazol-5-yl}-N-[2-(tetrahydro-2H-pyran-2-yl)ethyl]cyclobutanamine] |  |  | 26.9
CC(C)c1nn(-c2noc(C3CCN(CCc4cccnc4)CC3)n2)c2c(F)cccc12 [Example 399, 7-fluoro-3-(propan-2-yl)-1-(5-{1-[2-(pyridin-3-yl)ethyl]piperidin-4-yl}-1,2,4-oxadiazol-3-yl)-1H-indazole] |  |  | 20.2
CC(C)c1nn(-c2noc(C3CC(NCCC4CCOCC4)C3)n2)c2c(F)cccc12 (stereo not drawn) [Example 603, 3-{3-[7-fluoro-3-(propan-2-yl)-1H-indazol-1-yl]-1,2,4-oxadiazol-5-yl}-N-[2-(tetrahydro-2H-pyran-4-yl)ethyl]cyclobutanamine] |  |  | 28.6
CC(C)c1nn(-c2noc(C3CCC(NCCC4CCCOC4)CC3)n2)c2c(F)cccc12 (stereo not drawn) [Example 619, 4-{3-[7-fluoro-3-(propan-2-yl)-1H-indazol-1-yl]-1,2,4-oxadiazol-5-yl}-N-[2-(tetrahydro-2H-pyran-3-yl)ethyl]cyclohexanamine] |  |  | 39.2
CC(=O)N1CCC(N2CCC(c3nc(-n4nc(C(C)C)c5cccc(F)c54)no3)CC2C)CC1 (stereo not drawn) [Example 418, 1-(4-{3-[7-fluoro-3-(propan-2-yl)-1H-indazol-1-yl]-1,2,4-oxadiazol-5-yl}-2-methyl-1,4′-bipiperidin-1′-yl}ethanone] |  |  | 442
COCCNC1CCC(c2nc(-n3nc(C(C)C)c4cccc(F)c43)no2)CC1 (stereo not drawn) [Example 621, 4-{3-[7-fluoro-3-(propan-2-yl)-1H-indazol-1-yl]-1,2,4-oxadiazol-5-yl}-N-(2-methoxyethyl)cyclohexanamine] |  |  | 69.4
CC(C)c1nn(-c2noc(C3CC(NCC4CCCOC4)C3)n2)c2c(F)cccc12 (stereo not drawn) [Example 601, 3-{3-[7-fluoro-3-(propan-2-yl)-1H-indazol-1-yl]-1,2,4-oxadiazol-5-yl}-N-{tetrahydro-2H-pyran-3-ylmethyl)cyclobutanamine] |  |  | < 20
CC(C)c1nn(-c2noc([C@H]3C[C@H](NCCC4CCCCO4)C3)n2)c2c(F)cccc12 (relative stereo) [Example 598, trans-3-{3-[7-fluoro-3-(propan-2-yl)-1H-indazol-1-yl]-1,2,4-oxadiazol-5-yl}-N-[2-(tetrahydro-2H-pyran-2-yl)ethyl]cyclobutanamine] |  |  | < 20
CC(C)Cc1nn(-c2noc(C3CCN(C4CCN(C(=O)CO)CC4)CC3)n2)c2c(F)cccc12 [Example 526, 1-(4-{3-[7-fluoro-3-(2-methylpropyl)-1H-indazol-1-yl]-1,2,4-oxadiazol-5-yl}-1,4′-bipiperidin-1′-yl)-2-hydroxyethanone] |  |  | 25.2
CC(C)c1nn(-c2noc(C3CCN(C4CCS(=O)(=O)CC4)CC3)n2)c2c(F)cccc12 [Example 444, 1-{5-[1-(1,1-dioxidotetrahydro-2H-thiopyran-4-yl)piperidin-4-yl]-1,2,4-oxadiazol-3-yl}-7-fluoro-3-(propan-2-yl)-1H-indazole] |  |  | 96.8
COc1nn(-c2noc(C3CCN(C4CCN(C(C)=O)CC4)CC3)n2)c2c(F)cccc12 [Example 624, 1-{4-[3-(7-fluoro-3-methoxy-1H-indazol-1-yl)-1,2,4-oxadiazol-5-yl]-1,4′-bipiperidin-1′-yl}ethanone] |  |  | < 20
CC(C)c1nn(-c2noc(C3CC(NCCC4CCOC4)C3)n2)c2c(F)cccc12 (stereo not drawn) [Example 599, 3-{3-[7-fluoro-3-(propan-2-yl)-1H-indazol-1-yl]-1,2,4-oxadiazol-5-yl}-N-[2-(tetrahydrofuran-3-yl)ethyl]cyclobutanamine] |  |  | < 20
CC(=O)N1CC[C@@H](NC2CC(c3nc(-n4nc(C(C)C)c5cccc(F)c54)no3)C2)C1 (stereo partly drawn) [Example 592, 1-{(3R)-3-[(3-{3-[7-fluoro-3-(propan-2-yl)-1H-indazol-1-yl]-1,2,4-oxadiazol-5-yl}cyclobutyl)amino]pyrrolidin-1-yl}ethanone] |  |  | < 20
CC(C)c1nn(-c2noc(C3CC(NC4COC4)C3)n2)c2c(F)cccc12 (stereo not drawn) [Example 606, N-(3-{3-[7-fluoro-3-(propan-2-yl)-1H-indazol-1-yl]-1,2,4-oxadiazol-5-yl}cyclobutyl)oxetan-3-amine] |  |  | 86.7
CCOC(=O)N1CCC(N2CCC(c3nc(-n4nc(C(C)C)c5cccc(F)c54)no3)CC2)C(OC)C1 (stereo not drawn) [Example 556, ethyl 4-{3-[7-fluoro-3-(propan-2-yl)-1H-indazol-1-yl]-1,2,4-oxadiazol-5-yl}-3′-methoxy-1,4′-bipiperidine-1′-carboxylate] |  |  | 52.1
CC(C)c1nn(-c2noc(C3CC(NC4CCCOC4)C3)n2)c2c(F)cccc12 (stereo not drawn) [Example 600, N-(3-{3-[7-fluoro-3-(propan-2-yl)-1H-indazol-1-yl]-l,2,4-oxadiazol-5-yl}cyclobutyl)tetrahydro-2H-pyran-3-amine] |  |  | < 20
CC(C)c1nn(-c2noc([C@H]3CC[C@@H](NC4CCCOC4)CC3)n2)c2c(F)cccc12 (relative stereo) [Example 623, N-(cis-4-{3-[7-fluoro-3-(propan-2-yl)-1H-indazol-1-yl]-1,2,4-oxadiazol-5-yl}cyclohexyl)tetrahydro-2H-pyran-3-amine] |  |  | 105
CC(C)c1nn(-c2noc(C3CC(NCCC4CCCOC4)C3)n2)c2c(F)cccc12 (stereo not drawn) [Example 604, 3-{3-[7-fluoro-3-(propan-2-yl)-1H-indazol-1-yl]-1,2,4-oxadiazol-5-yl}-N-[2-(tetrahydro-2H-pyran-3-yl)ethyl]cyclobutanamine] |  |  | < 20
CC(=O)N1CCC(N2CC(Cc3nc(-n4nc(C(C)C)c5cccc(F)c54)no3)C2)CC1 [Example 416] |  |  | 27.4
CC(=O)N1CCCC(N[C@H]2CC[C@@H](c3nc(-n4nc(C(C)C)c5cccc(F)c54)no3)CC2)C1 (relative stereo) [Example 622, 1-{3-[(cis-4-{3-[7-fluoro-3-(propan-2-yl)-1H-indazol-1-yl]-1,2,4-oxadiazol-5-yl}cyclohexyl)amino]piperidin-1-yl}ethanone] |  |  | 123
COCCCNC1CC(c2nc(-n3nc(C(C)C)c4cccc(F)c43)no2)C1 (stereo not drawn) [Example 609, 3-{3-[7-fluoro-3-(propan-2-yl)-1H-indazol-1-yl]-1,2,4-oxadiazol-5-yl}-N-(3-methoxypropyl)cyclobutanamine] |  |  | < 20
CC(C)c1nn(-c2noc(C3CC(NC4CCOC4)C3)n2)c2c(F)cccc12 (stereo not drawn) [Example 607, N-(3-{3-[7-fluoro-3-(propan-2-yl)-1H-indazol-1-yl]-1,2,4-oxadiazol-5-yl)cyclobutyl)tetrahydrofuran-3-amine] |  |  | < 20
CC(C)c1nn(-c2noc(C3CCN(C(C)(C)C(=O)O)CC3)n2)c2c(F)cccc12 [Example 401, 2-(4-{3-[7-fluoro-3-(propan-2-yl)-1H-indazol-1-yl]-1,2,4-oxadiazol-5-yl}piperidin-1-yl)-2-methylpropanoic acid hydrochloride] |  |  | 296
